# “And” between values parts separate entries of the source, which are not always exact repeats. Identical values can stand only once. Inconclusive results and toxic doses are left out.
# Test system: BDF1 mice, P388 leukemia ip, median survival T/C
# Experiment: NCI In Vivo Anticancer Drug Screen. Data for tumor model P388 Leukemia (intraperitoneal) in B6D2F1 (BDF1) mice
# Settings: endpoint: median survival time, higher = longer survival
# Procedure, shortened: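 Antitumour effect was judged in vivo: survival in drug-treated mice, normalised to that of vehicle-dosed controls, gives the reported T/C.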
# [1] = dose: 100.0 mg/kg/injection, schedule: Q01DX009 (ip), vehicle: saline with Tween-80
# [2] = dose: 200.0 mg/kg/injection, schedule: Q01DX009 (ip), vehicle: saline with Tween-80
# [3] = dose: 100.0 mg/kg/injection, schedule: Q01DX009 (ip), vehicle: saline
# [4] = dose: 100.0 mg/kg/injection, schedule: Q04DX003 (ip), vehicle: saline
# [5] = dose: 200.0 mg/kg/injection, schedule: Q04DX003 (ip), vehicle: saline
# [6] = dose: 400.0 mg/kg/injection, schedule: Q01DX009 (ip), vehicle: saline
# [7] = dose: 400.0 mg/kg/injection, schedule: Q04DX003 (ip), vehicle: saline
# [8] = dose: 50.0 mg/kg/injection, schedule: Q01DX009 (ip), vehicle: saline
# [9] = dose: 200.0 mg/kg/injection, schedule: Q01DX009 (ip), vehicle: saline
# [10] = dose: 100.0 mg/kg/injection, schedule: Q04DX003 (ip), vehicle: saline with Tween-80
# [11] = dose: 200.0 mg/kg/injection, schedule: Q04DX003 (ip), vehicle: saline with Tween-80
# [12] = dose: 400.0 mg/kg/injection, schedule: Q01DX009 (ip), vehicle: saline with Tween-80
# [13] = dose: 400.0 mg/kg/injection, schedule: Q04DX003 (ip), vehicle: saline with Tween-80
# [14] = dose: 12.5 mg/kg/injection, schedule: Q04DX003 (ip), vehicle: Klucel (hydroxypropylcellulose) (HPC)
# [15] = dose: 25.0 mg/kg/injection, schedule: Q01DX009 (ip), vehicle: saline
smiles,measurement,setting,value
CN(C)C(=O)c1cccc(NC(=O)Oc2ccccc2)c1,T/C,[1],90 % of control
same,T/C,[2],95 % of control
O=S(=O)(O)CCN(CCO)CCO,T/C,[3],87 % of control
same,T/C,[4],109 % of control
same,T/C,[5],104 % of control
same,T/C,[6],87 % of control
same,T/C,[7],95 % of control
O=C1/C(=C\c2ccccc2)OC(c2ccccc2)O/C1=C/c1ccccc1 (configuration not stated),T/C,[8],108 % of control
same,T/C,[3],95 % of control
same,T/C,[4],120 % of control
same,T/C,[9],97 % of control
same,T/C,[5],117 % of control
same,T/C,[7],114 % of control
CCOC(=O)c1cc2sccc2[nH]1,T/C,[1],103 % of control
same,T/C,[10],104 % of control
same,T/C,[2],100 % of control
same,T/C,[11],109 % of control
same,T/C,[12],115 % of control
same,T/C,[13],113 % of control
CCCCCC(CN(C)C)C(=O)/C=C/c1c(Cl)cccc1Cl (configuration not stated),T/C,"dose: 3.12 mg/kg/injection, schedule: Q04DX003 (ip), vehicle: Klucel (hydroxypropylcellulose) (HPC)",104 % of control
same,T/C,"dose: 6.25 mg/kg/injection, schedule: Q01DX009 (ip), vehicle: Klucel (hydroxypropylcellulose) (HPC)",110 % of control
same,T/C,"dose: 6.25 mg/kg/injection, schedule: Q04DX003 (ip), vehicle: Klucel (hydroxypropylcellulose) (HPC)",109 % of control
same,T/C,[14],104 % of control
same,T/C,"dose: 18.0 mg/kg/injection, schedule: Q04DX003 (ip), vehicle: Klucel (hydroxypropylcellulose) (HPC)",105 % of control
same,T/C,"dose: 28.0 mg/kg/injection, schedule: Q04DX003 (ip), vehicle: Klucel (hydroxypropylcellulose) (HPC)",115 % of control
same,T/C,"dose: 40.0 mg/kg/injection, schedule: Q01DX001 (ip), vehicle: saline",109 % of control
same,T/C,"dose: 40.0 mg/kg/injection, schedule: Q04DX003 (ip), vehicle: Klucel (hydroxypropylcellulose) (HPC)",90 % of control
same,T/C,"dose: 65.0 mg/kg/injection, schedule: Q01DX001 (ip), vehicle: saline",104 % of control
CCOC(=O)NC(=O)CC,T/C,"dose: 25.0 mg/kg/injection, schedule: Q01DX005 (ip), vehicle: saline",114 % of control
same,T/C,[15],102 % of control
same,T/C,"dose: 50.0 mg/kg/injection, schedule: Q01DX005 (ip), vehicle: saline",114 % of control
same,T/C,[8],102 % of control
same,T/C,"dose: 50.0 mg/kg/injection, schedule: Q04DX003 (ip), vehicle: saline",103 % of control and 104 % of control
same,T/C,"dose: 100.0 mg/kg/injection, schedule: Q01DX005 (ip), vehicle: saline",96 % of control
same,T/C,[3],115 % of control
same,T/C,[4],96 % of control and 103 % of control and 213 % of control
same,T/C,"dose: 200.0 mg/kg/injection, schedule: Q01DX005 (ip), vehicle: saline",122 % of control
same,T/C,[9],112 % of control
same,T/C,[5],105 % of control and 112 % of control and 114 % of control
same,T/C,[6],106 % of control
same,T/C,[7],99 % of control and 113 % of control
same,T/C,"dose: 600.0 mg/kg/injection, schedule: Q04DX003 (ip), vehicle: saline",114 % of control
CC(=O)Nc1ccc(S(=O)(=O)NC(N)=O)cc1,T/C,[1],105 % of control
same,T/C,[12],98 % of control
CCOC(=O)C(Cc1ccccc1Cl)(NC(C)=O)C(=O)OCC,T/C,[1],100 % of control
same,T/C,[10],90 % of control
same,T/C,[11],100 % of control
same,T/C,[12],90 % of control
same,T/C,[13],104 % of control
Cc1cc2c3ccccc3ccc2[n+]2ccccc12,T/C,"dose: 4.1 mg/kg/injection, schedule: Q01DX009 (ip), vehicle: saline",120 % of control
same,T/C,"dose: 9.37 mg/kg/injection, schedule: Q01DX009 (ip), vehicle: saline",161 % of control
same,T/C,"dose: 18.75 mg/kg/injection, schedule: Q01DX009 (ip), vehicle: saline",171 % of control and 180 % of control
same,T/C,"dose: 28.12 mg/kg/injection, schedule: Q01DX009 (ip), vehicle: saline",190 % of control
same,T/C,"dose: 37.5 mg/kg/injection, schedule: Q04DX003 (ip), vehicle: alcohol",112 % of control
Oc1ccc2ccccc2c1C1=NNc2n[nH]c(=S)n2N1,T/C,[14],104 % of control
same,T/C,"dose: 25.0 mg/kg/injection, schedule: Q04DX003 (ip), vehicle: Klucel (hydroxypropylcellulose) (HPC)",108 % of control
same,T/C,"dose: 50.0 mg/kg/injection, schedule: Q04DX003 (ip), vehicle: Klucel (hydroxypropylcellulose) (HPC)",104 % of control
CCOC(=O)CC(C)(N)NC(N)=O (configuration not stated),T/C,"dose: 100.0 mg/kg/injection, schedule: Q01DX001 (ip), vehicle: saline with Tween-80",110 % of control
same,T/C,[1],115 % of control
same,T/C,"dose: 100.0 mg/kg/injection, schedule: Q04DX003 (ip), vehicle: alcohol",110 % of control
same,T/C,"dose: 200.0 mg/kg/injection, schedule: Q01DX001 (ip), vehicle: saline with Tween-80",95 % of control
same,T/C,[2],105 % of control
same,T/C,"dose: 200.0 mg/kg/injection, schedule: Q04DX003 (ip), vehicle: alcohol",105 % of control
same,T/C,"dose: 400.0 mg/kg/injection, schedule: Q01DX001 (ip), vehicle: saline with Tween-80",110 % of control
same,T/C,[12],105 % of control
same,T/C,"dose: 400.0 mg/kg/injection, schedule: Q04DX003 (ip), vehicle: alcohol",110 % of control
NC1=NC(=O)/C(=C/c2ccccc2)S1,T/C,[8],90 % of control
same,T/C,[3],100 % of control
same,T/C,[9],100 % of control
O=C(Nc1ccc(C2=NCCN2)cc1)C1CCC(C(=O)Nc2ccc(C3=NCCN3)cc2)CC1 (configuration not stated),T/C,[10],150 % of control
same,T/C,[11],179 % of control
same,T/C,"dose: 264.0 mg/kg/injection, schedule: Q04DX003 (ip), vehicle: saline with Tween-80",228 % of control and 200 % of control
same,T/C,[13],225 % of control and 229 % of control and 240 % of control
same,T/C,"dose: 600.0 mg/kg/injection, schedule: Q04DX003 (ip), vehicle: saline with Tween-80",240 % of control and 245 % of control
C#CCOCC(CCl)OC(N)=O (configuration not stated),T/C,"dose: 50.0 mg/kg/injection, schedule: Q01DX009 (ip), vehicle: saline with Tween-80",110 % of control
same,T/C,[1],114 % of control
same,T/C,[4],110 % of control
same,T/C,[2],107 % of control
same,T/C,[5],120 % of control
CCC(CC)OC(=O)c1cccc(C)c1,T/C,"dose: 50.0 mg/kg/injection, schedule: Q04DX003 (ip), vehicle: saline with Tween-80",104 % of control
same,T/C,[10],108 % of control
same,T/C,[11],101 % of control
COc1ccc(Br)c(C=O)c1OS(=O)(=O)c1ccc(C)cc1,T/C,"dose: 25.0 mg/kg/injection, schedule: Q01DX009 (ip), vehicle: other",100 % of control
same,T/C,"dose: 50.0 mg/kg/injection, schedule: Q01DX009 (ip), vehicle: other",110 % of control
same,T/C,"dose: 100.0 mg/kg/injection, schedule: Q01DX009 (ip), vehicle: other",94 % of control
same,T/C,"dose: 200.0 mg/kg/injection, schedule: Q01DX009 (ip), vehicle: other",99 % of control
same,T/C,"dose: 400.0 mg/kg/injection, schedule: Q01DX009 (ip), vehicle: other",95 % of control
CC[N+](C)(CC)CCC[n+]1c(-c2ccccc2)c2cc(N)ccc2c2ccc(N)cc21,T/C,"dose: 1.5 mg/kg/injection, schedule: Q01DX009 (ip), vehicle: saline",107 % of control
same,T/C,"dose: 3.0 mg/kg/injection, schedule: Q01DX009 (ip), vehicle: saline",100 % of control
same,T/C,"dose: 3.12 mg/kg/injection, schedule: Q04DX003 (ip), vehicle: saline",100 % of control
same,T/C,"dose: 6.25 mg/kg/injection, schedule: Q04DX003 (ip), vehicle: saline",100 % of control
c1ccc2c(c1)Sc1ccccc1N2CCCN1CCCC1,T/C,"dose: 6.25 mg/kg/injection, schedule: Q01DX009 (ip), vehicle: saline",104 % of control
same,T/C,"dose: 12.5 mg/kg/injection, schedule: Q01DX009 (ip), vehicle: saline",104 % of control
same,T/C,[15],122 % of control
O=[N+]([O-])c1ccc(N=Cc2ccccc2)cc1,T/C,"dose: 100.0 mg/kg/injection, schedule: Q04DX003 (ip), vehicle: Klucel (hydroxypropylcellulose) (HPC)",100 % of control
same,T/C,"dose: 200.0 mg/kg/injection, schedule: Q04DX003 (ip), vehicle: Klucel (hydroxypropylcellulose) (HPC)",108 % of control
same,T/C,"dose: 400.0 mg/kg/injection, schedule: Q04DX003 (ip), vehicle: Klucel (hydroxypropylcellulose) (HPC)",108 % of control
